{"source": "paper PMC10006169", "about": "“A phase I trial of LXS196, a protein kinase C (PKC) inhibitor, for metastatic uveal melanoma” (British Journal of Cancer, 2023)", "system": "patients with MUM", "assay": "Adverse events suspected to be study drug related (NCI-CTCAE v4.03)", "assay_type": "in vivo, human", "conditions": "suspected drug related", "experimental": "Routine safety assessments, including laboratory assessments, physical examinations, vital signs and electrocardiograms (ECGs), were conducted at regular intervals throughout the study and more frequently as needed following patient assessment by the treating physician. Adverse events (AEs) were assessed continuously according to the National Cancer Institute Common Terminology Criteria for Adverse Events (NCI-CTCAE) v4.03.", "key": {"[1]": {"conditions": "300 mg BID (RDE), n=18, All grades"}, "[2]": {"conditions": "300 mg BID (RDE), n=18, Grade ≥3"}, "[3]": {"conditions": "All LXS196 BID patients, n=30, All grades"}, "[4]": {"conditions": "All LXS196 BID patients, n=30, Grade ≥3"}, "[5]": {"conditions": "All LXS196 patients, N=68, All grades"}, "[6]": {"conditions": "All LXS196 patients, N=68, Grade ≥3"}}}
{"smiles": "CC1(N)CCN(c2cccnc2NC(=O)c2nc(-c3ncccc3C(F)(F)F)cnc2N)CC1", "note": "[LXS196]", "values": [{"measurement": "Fatigue", "setting": "[1]", "value": "3 (16.7) n (%)"}, {"measurement": "Hypotension", "setting": "[1]", "value": "3 (16.7) n (%)"}, {"measurement": "Nausea", "setting": "[1]", "value": "14 (77.8) n (%)"}, {"measurement": "Number of patients with ≥1 adverse event", "setting": "[1]", "value": "17 (94.4) n (%)"}, {"measurement": "Rash", "setting": "[1]", "value": "4 (22.2) n (%)"}, {"measurement": "Vomiting", "setting": "[1]", "value": "7 (38.9) n (%)"}, {"measurement": "Alanine aminotransferase increased", "setting": "[2]", "value": "1 (5.6) n (%)"}, {"measurement": "Aspartate aminotransferase increased", "setting": "[2]", "value": "1 (5.6) n (%)"}, {"measurement": "Asthenia", "setting": "[2]", "value": "0 n (%)"}, {"measurement": "Blood creatinine increased", "setting": "[2]", "value": "0 n (%)"}, {"measurement": "Constipation", "setting": "[2]", "value": "0 n (%)"}, {"measurement": "Diarrhoea", "setting": "[2]", "value": "1 (5.6) n (%)"}, {"measurement": "Dry skin", "setting": "[2]", "value": "0 n (%)"}, {"measurement": "Fatigue", "setting": "[2]", "value": "0 n (%)"}, {"measurement": "Hypotension", "setting": "[2]", "value": "0 n (%)"}, {"measurement": "Nausea", "setting": "[2]", "value": "0 n (%)"}, {"measurement": "Number of patients with ≥1 adverse event", "setting": "[2]", "value": "2 (11.1) n (%)"}, {"measurement": "Rash", "setting": "[2]", "value": "0 n (%)"}, {"measurement": "Vomiting", "setting": "[2]", "value": "0 n (%)"}, {"measurement": "Alanine aminotransferase increased", "setting": "400 mg BID, n=6, All grades", "value": "3 (50.0) n (%)"}, {"measurement": "Aspartate aminotransferase increased", "setting": "400 mg BID, n=6, All grades", "value": "3 (50.0) n (%)"}, {"measurement": "Asthenia", "setting": "400 mg BID, n=6, All grades", "value": "2 (33.3) n (%)"}, {"measurement": "Blood creatinine increased", "setting": "400 mg BID, n=6, All grades", "value": "0 n (%)"}, {"measurement": "Constipation", "setting": "400 mg BID, n=6, All grades", "value": "2 (33.3) n (%)"}, {"measurement": "Diarrhoea", "setting": "400 mg BID, n=6, All grades", "value": "3 (50.0) n (%)"}, {"measurement": "Dry skin", "setting": "400 mg BID, n=6, All grades", "value": "1 (16.7) n (%)"}, {"measurement": "Fatigue", "setting": "400 mg BID, n=6, All grades", "value": "1 (16.7) n (%)"}, {"measurement": "Hypotension", "setting": "400 mg BID, n=6, All grades", "value": "4 (66.7) n (%)"}, {"measurement": "Nausea", "setting": "400 mg BID, n=6, All grades", "value": "3 (50.0) n (%)"}, {"measurement": "Number of patients with ≥1 adverse event", "setting": "400 mg BID, n=6, All grades", "value": "6 (100) n (%)"}, {"measurement": "Rash", "setting": "400 mg BID, n=6, All grades", "value": "1 (16.7) n (%)"}, {"measurement": "Vomiting", "setting": "400 mg BID, n=6, All grades", "value": "2 (33.3) n (%)"}, {"measurement": "Alanine aminotransferase increased", "setting": "400 mg BID, n=6, Grade ≥3", "value": "1 (16.7) n (%)"}, {"measurement": "Aspartate aminotransferase increased", "setting": "400 mg BID, n=6, Grade ≥3", "value": "1 (16.7) n (%)"}, {"measurement": "Asthenia", "setting": "400 mg BID, n=6, Grade ≥3", "value": "0 n (%)"}, {"measurement": "Blood creatinine increased", "setting": "400 mg BID, n=6, Grade ≥3", "value": "0 n (%)"}, {"measurement": "Constipation", "setting": "400 mg BID, n=6, Grade ≥3", "value": "0 n (%)"}, {"measurement": "Diarrhoea", "setting": "400 mg BID, n=6, Grade ≥3", "value": "0 n (%)"}, {"measurement": "Dry skin", "setting": "400 mg BID, n=6, Grade ≥3", "value": "0 n (%)"}, {"measurement": "Fatigue", "setting": "400 mg BID, n=6, Grade ≥3", "value": "0 n (%)"}, {"measurement": "Hypotension", "setting": "400 mg BID, n=6, Grade ≥3", "value": "1 (16.7) n (%)"}, {"measurement": "Nausea", "setting": "400 mg BID, n=6, Grade ≥3", "value": "0 n (%)"}, {"measurement": "Number of patients with ≥1 adverse event", "setting": "400 mg BID, n=6, Grade ≥3", "value": "4 (66.7) n (%)"}, {"measurement": "Rash", "setting": "400 mg BID, n=6, Grade ≥3", "value": "0 n (%)"}, {"measurement": "Vomiting", "setting": "400 mg BID, n=6, Grade ≥3", "value": "0 n (%)"}, {"measurement": "Alanine aminotransferase increased", "setting": "[3]", "value": "8 (26.7) n (%)"}, {"measurement": "Aspartate aminotransferase increased", "setting": "[3]", "value": "6 (20.0) n (%)"}, {"measurement": "Asthenia", "setting": "[3]", "value": "7 (23.3) n (%)"}, {"measurement": "Blood creatinine increased", "setting": "[3]", "value": "5 (16.7) n (%)"}, {"measurement": "Constipation", "setting": "[3]", "value": "3 (10.0) n (%)"}, {"measurement": "Diarrhoea", "setting": "[3]", "value": "16 (53.3) n (%)"}, {"measurement": "Dry skin", "setting": "[3]", "value": "6 (20.0) n (%)"}, {"measurement": "Fatigue", "setting": "[3]", "value": "4 (13.3) n (%)"}, {"measurement": "Hypotension", "setting": "[3]", "value": "7 (23.3) n (%)"}, {"measurement": "Nausea", "setting": "[3]", "value": "19 (63.3) n (%)"}, {"measurement": "Number of patients with ≥1 adverse event", "setting": "[3]", "value": "28 (93.3) n (%)"}, {"measurement": "Rash", "setting": "[3]", "value": "5 (16.7) n (%)"}, {"measurement": "Vomiting", "setting": "[3]", "value": "9 (30.0) n (%)"}, {"measurement": "Alanine aminotransferase increased", "setting": "[4]", "value": "2 (6.7) n (%)"}, {"measurement": "Aspartate aminotransferase increased", "setting": "[4]", "value": "2 (6.7) n (%)"}, {"measurement": "Asthenia", "setting": "[4]", "value": "0 n (%)"}, {"measurement": "Blood creatinine increased", "setting": "[4]", "value": "0 n (%)"}, {"measurement": "Constipation", "setting": "[4]", "value": "0 n (%)"}, {"measurement": "Diarrhoea", "setting": "[4]", "value": "1 (3.3) n (%)"}, {"measurement": "Dry skin", "setting": "[4]", "value": "0 n (%)"}, {"measurement": "Fatigue", "setting": "[4]", "value": "0 n (%)"}, {"measurement": "Hypotension", "setting": "[4]", "value": "1 (3.3) n (%)"}, {"measurement": "Nausea", "setting": "[4]", "value": "0 n (%)"}, {"measurement": "Number of patients with ≥1 adverse event", "setting": "[4]", "value": "6 (20.0) n (%)"}, {"measurement": "Rash", "setting": "[4]", "value": "0 n (%)"}, {"measurement": "Vomiting", "setting": "[4]", "value": "0 n (%)"}, {"measurement": "Alanine aminotransferase increased", "setting": "[5]", "value": "15 (22.1) n (%)"}, {"measurement": "Aspartate aminotransferase increased", "setting": "[5]", "value": "11 (16.2) n (%)"}, {"measurement": "Asthenia", "setting": "[5]", "value": "13 (19.1) n (%)"}, {"measurement": "Blood creatinine increased", "setting": "[5]", "value": "7 (10.3) n (%)"}, {"measurement": "Constipation", "setting": "[5]", "value": "7 (10.3) n (%)"}, {"measurement": "Diarrhoea", "setting": "[5]", "value": "31 (45.6) n (%)"}, {"measurement": "Dry skin", "setting": "[5]", "value": "8 (11.8) n (%)"}, {"measurement": "Fatigue", "setting": "[5]", "value": "14 (20.6) n (%)"}, {"measurement": "Hypotension", "setting": "[5]", "value": "15 (22.1) n (%)"}, {"measurement": "Nausea", "setting": "[5]", "value": "45 (66.2) n (%)"}, {"measurement": "Number of patients with ≥1 adverse event", "setting": "[5]", "value": "63 (92.6) n (%)"}, {"measurement": "Rash", "setting": "[5]", "value": "8 (11.8) n (%)"}, {"measurement": "Vomiting", "setting": "[5]", "value": "21 (30.9) n (%)"}, {"measurement": "Alanine aminotransferase increased", "setting": "[6]", "value": "4 (5.9) n (%)"}, {"measurement": "Aspartate aminotransferase increased", "setting": "[6]", "value": "4 (5.9) n (%)"}, {"measurement": "Asthenia", "setting": "[6]", "value": "0 n (%)"}, {"measurement": "Blood creatinine increased", "setting": "[6]", "value": "0 n (%)"}, {"measurement": "Constipation", "setting": "[6]", "value": "0 n (%)"}, {"measurement": "Diarrhoea", "setting": "[6]", "value": "1 (1.5) n (%)"}, {"measurement": "Dry skin", "setting": "[6]", "value": "0 n (%)"}, {"measurement": "Fatigue", "setting": "[6]", "value": "0 n (%)"}, {"measurement": "Hypotension", "setting": "[6]", "value": "6 (8.8) n (%)"}, {"measurement": "Nausea", "setting": "[6]", "value": "1 (1.5) n (%)"}, {"measurement": "Number of patients with ≥1 adverse event", "setting": "[6]", "value": "17 (25.0) n (%)"}, {"measurement": "Rash", "setting": "[6]", "value": "0 n (%)"}, {"measurement": "Vomiting", "setting": "[6]", "value": "1 (1.5) n (%)"}]}
